This assay concerns the target T1, p300 (Homo sapiens, UniProt Q09472).
T1 construct: host or cells: A549 P300 HiBit cells
The experiment in a line: P300 degradation, HiBit technology in A549 P300 HiBit cells (2 h). The assay is classed as cell-based. The following applies: 2 hrs post treatment; for Dmax: A549, A549 P300 HiBit cells; for DC50: A549 P300 HiBit cells. In a few lines:
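A549 HiBiT knock-in cells seeded overnight at 37 °C, 5% CO2 in F-12K with 10% heat-inactivated FBS, then given serial dilutions of compound from 10 mM DMSO stocks. Lytic HiBiT detection reagent added for 10 min at room temperature; luminescence read. Potency and Dmax reported.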
In general terms: With HiBiT, luminescence reflects the tagged protein that the partner subunit can reach.

T1 sequence (Q09472 whole entry): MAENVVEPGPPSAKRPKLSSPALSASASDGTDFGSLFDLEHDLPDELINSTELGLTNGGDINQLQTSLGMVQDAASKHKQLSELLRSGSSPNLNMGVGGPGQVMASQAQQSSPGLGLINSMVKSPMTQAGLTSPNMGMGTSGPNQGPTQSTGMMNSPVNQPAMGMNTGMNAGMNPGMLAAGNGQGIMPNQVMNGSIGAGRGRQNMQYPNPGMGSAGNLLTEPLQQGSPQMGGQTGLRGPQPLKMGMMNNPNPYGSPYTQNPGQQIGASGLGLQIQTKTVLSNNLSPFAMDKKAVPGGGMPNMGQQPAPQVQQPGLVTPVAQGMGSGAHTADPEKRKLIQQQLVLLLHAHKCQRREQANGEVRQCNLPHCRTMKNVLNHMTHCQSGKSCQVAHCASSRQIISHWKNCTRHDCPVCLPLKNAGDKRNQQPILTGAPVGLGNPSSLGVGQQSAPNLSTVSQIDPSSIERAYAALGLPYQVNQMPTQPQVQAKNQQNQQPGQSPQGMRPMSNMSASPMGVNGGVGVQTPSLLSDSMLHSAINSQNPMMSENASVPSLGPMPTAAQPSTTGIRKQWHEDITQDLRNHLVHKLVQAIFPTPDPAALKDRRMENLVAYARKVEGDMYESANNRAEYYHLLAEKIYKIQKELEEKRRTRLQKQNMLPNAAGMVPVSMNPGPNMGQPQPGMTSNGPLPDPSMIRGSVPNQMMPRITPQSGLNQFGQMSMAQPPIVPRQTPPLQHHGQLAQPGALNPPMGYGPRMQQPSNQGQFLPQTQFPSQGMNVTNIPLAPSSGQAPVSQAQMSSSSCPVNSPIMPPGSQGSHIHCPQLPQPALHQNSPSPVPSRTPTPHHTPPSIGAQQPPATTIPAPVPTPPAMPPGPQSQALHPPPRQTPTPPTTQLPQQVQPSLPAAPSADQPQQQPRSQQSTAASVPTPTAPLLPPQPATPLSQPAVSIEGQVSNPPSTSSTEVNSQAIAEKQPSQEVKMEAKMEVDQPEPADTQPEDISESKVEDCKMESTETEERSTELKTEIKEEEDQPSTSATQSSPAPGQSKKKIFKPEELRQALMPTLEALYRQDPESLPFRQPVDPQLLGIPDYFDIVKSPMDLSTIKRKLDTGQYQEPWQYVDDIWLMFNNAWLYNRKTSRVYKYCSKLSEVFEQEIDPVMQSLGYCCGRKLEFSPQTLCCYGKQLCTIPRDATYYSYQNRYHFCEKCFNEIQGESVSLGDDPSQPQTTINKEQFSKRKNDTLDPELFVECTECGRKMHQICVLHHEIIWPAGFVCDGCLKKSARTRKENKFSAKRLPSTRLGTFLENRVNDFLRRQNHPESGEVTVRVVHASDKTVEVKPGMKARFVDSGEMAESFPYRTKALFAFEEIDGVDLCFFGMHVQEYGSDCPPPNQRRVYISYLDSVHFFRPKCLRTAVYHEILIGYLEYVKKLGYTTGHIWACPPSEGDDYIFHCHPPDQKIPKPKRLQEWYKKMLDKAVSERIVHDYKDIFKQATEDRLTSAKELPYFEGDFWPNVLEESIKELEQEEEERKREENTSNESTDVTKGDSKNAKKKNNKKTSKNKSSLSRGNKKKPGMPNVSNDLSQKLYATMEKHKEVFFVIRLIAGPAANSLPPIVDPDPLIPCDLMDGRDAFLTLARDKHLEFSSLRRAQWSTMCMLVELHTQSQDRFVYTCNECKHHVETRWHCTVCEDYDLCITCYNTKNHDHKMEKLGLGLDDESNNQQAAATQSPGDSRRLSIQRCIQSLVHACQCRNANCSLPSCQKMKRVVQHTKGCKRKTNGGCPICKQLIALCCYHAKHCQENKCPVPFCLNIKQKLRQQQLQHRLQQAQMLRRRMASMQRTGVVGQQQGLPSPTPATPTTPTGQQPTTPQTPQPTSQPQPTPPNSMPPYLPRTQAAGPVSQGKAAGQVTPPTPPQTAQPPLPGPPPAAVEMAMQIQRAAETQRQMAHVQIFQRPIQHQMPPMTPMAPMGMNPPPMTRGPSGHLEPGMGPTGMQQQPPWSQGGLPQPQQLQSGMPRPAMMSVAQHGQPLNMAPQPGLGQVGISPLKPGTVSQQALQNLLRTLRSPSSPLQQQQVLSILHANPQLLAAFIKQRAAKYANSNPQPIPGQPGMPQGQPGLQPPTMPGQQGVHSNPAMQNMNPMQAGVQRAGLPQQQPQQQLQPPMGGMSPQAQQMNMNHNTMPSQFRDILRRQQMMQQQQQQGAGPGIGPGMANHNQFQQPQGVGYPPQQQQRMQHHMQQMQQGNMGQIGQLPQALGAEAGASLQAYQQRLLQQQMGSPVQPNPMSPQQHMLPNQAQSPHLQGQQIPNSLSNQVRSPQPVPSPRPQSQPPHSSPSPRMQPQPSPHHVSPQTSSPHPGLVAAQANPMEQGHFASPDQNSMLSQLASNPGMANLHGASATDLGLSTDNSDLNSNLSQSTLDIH

On to `COc1cc(-c2ccc(N(C)c3cc(C(C)C)c4c(c3)n(C)c(=O)n4C)cn2)cnc1C(=O)NCC#Cc1cccc(NC2CCC(=O)NC2=O)c1` (centres unmarked) [Example A49, N-(3-(3-((2,6-dioxopiperidin-3-yl)amino)phenyl)prop-2-yn-1-yl)-5-((7-isopropyl-1,3-dimethyl-2-oxo-2,3-dihydro-1H-benzo [d]imidazol-5-yl) (methyl)amino)-5′-methoxy-[2,3′-bipyridine]-6′-carboxamide], for which the Dmax was above 80% and the half-maximal degradation concentration (DC50) fell in the range of 10 to 99 nM.

In turn, `COc1cc(-c2cnc(C(=O)NCC#Cc3cc4c(C5CCC(=O)NC5=O)cccc4o3)c(C)c2)ncc1N(C)c1cc(C2CCOCC2)c2c(c1)n(C)c(=O)n2C` (centres unmarked) [Example A166, 5-((1,3-dimethyl-2-oxo-7-(tetrahydro-2H-pyran-4-yl)-2,3-dihydro-1H-benzo[d]imidazol-5-yl)(methyl)amino)-N-(3-(4-(2,6-dioxopiperidin-3-yl)benzofuran-2-yl)prop-2-yn-1-yl)-4-methoxy-5′-methyl-[2,3′-bipyridine]-6′-carboxamide] gave a Dmax of 20 to 39% and a DC50 of 1 to 9.9 nM.

Molecule `Cc1cc(N2CCN(C)c3cc(-c4ccc(C(=O)NCC#Cc5cc6c(C7CCC(=O)NC7=O)nccc6o5)nc4)ncc32)cc2c1n(C)c(=O)n2C` (centres unmarked) [Example A209, N-(3-(4-(2,6-dioxo-piperidin-3-yl)furo [3,2-c]pyridin-2-yl)prop-2-yn-1-yl)-5-(1-methyl-4-(1,3,7-trimethyl-2-oxo-2,3-dihydro-1H-benzo[d]imidazol-5-yl)-1,2,3,4-tetrahydropyrido[3,4-b]pyrazin-7-yl)picolinamide] came in with a Dmax above 80% and a DC50 below 1 nM.

As for `Cc1nc(-c2cnc(N(C)c3cc(C4CCOCC4)c4c(c3)n(C)c(=O)n4C)cn2)cnc1C(=O)NCC#Cc1cc2c(C3CCC(=O)NC3=O)cccc2o1` (centres unmarked) [Example A222, 5′-((1,3-dimethyl-2-oxo-7-(tetrahydro-2H-pyran-4-yl)-2,3-dihydro-1H-benzo[d]imidazol-5-yl)(methyl)amino)-N-(3-(4-(2,6-dioxo-piperidin-3-yl)benzofuran-2-yl)prop-2-yn-1-yl)-6-methyl-[2,2′-bipyrazine]-5-carboxamide], the greatest degradation seen (Dmax) is above 80% and the 50% degradation concentration (DC50) fell in the range of 1 to 9.9 nM.

`Cc1cc2c(N3CCCc4nc(-c5ccc(C(=O)NCC#Cc6ccc7c(c6)N(C6CCC(=O)NC6=O)CCCC7)nc5)ncc43)cc(C3CCOCC3)cc2n(C)c1=O` (centres unmarked) [Example B57, 5-(5-(1,3-dimethyl-2-oxo-7-(tetrahydro-2H-pyran-4-yl)-1,2-dihydroquinolin-5-yl)-5,6,7,8-tetrahydropyrido[3,2-d]pyrimidin-2-yl)-N-(3-(1-(2,6-dioxopiperidin-3-yl)-2,3,4,5-tetrahydro-1H-benzo[b]azepin-8-yl)prop-2-yn-1-yl) picolinamide]: the Dmax is below 20% and the half-maximal degradation concentration (DC50) was above 1000 nM.

In the case of `Cc1cc2c(N3CCCc4nc(-c5cnc(C(=O)NCC#Cc6cc7c(C8CCC(=O)NC8=O)cccc7o6)c(Cl)c5)ncc43)cccc2n(C)c1=O` (centres unmarked) [Example B36, 3-chloro-5-(5-(1,3-dimethyl-2-oxo-1,2-dihydroquinolin-5-yl)-5,6,7,8-tetrahydropyrido [3,2-d]pyrimidin-2-yl)-N-(3-(4-(2,6-dioxo-piperidin-3-yl)benzofuran-2-yl)prop-2-yn-1-yl)picolinamide], the greatest degradation seen (Dmax) was above 80% and the DC50 is 1 to 9.9 nM.

The molecule `Cc1cc(-c2ncc(N(C)c3cc(C4CCOCC4)c4c(c3)n(C)c(=O)n4C)cn2)cnc1C(=O)NCC#Cc1cc2c(C3CCC(=O)NC3=O)cccc2o1` (centres unmarked) [Example A256, 5-(5-((1,3-dimethyl-2-oxo-7-(tetrahydro-2H-pyran-4-yl)-2,3-dihydro-1H-benzo[d]imidazol-5-yl)(methyl)amino)pyrimidin-2-yl)-N-(3-(4-(2,6-dioxo-piperidin-3-yl)benzo-furan-2-yl)prop-2-yn-1-yl)-3-methylpicolinamide] had a maximal degradation (Dmax) above 80% and a DC50 of 1 to 9.9 nM.

Regarding `Cc1cc2c(N3CCCc4nc(-c5ccc(C(=O)NCC#Cc6cc7c(C8CCC(=O)NC8=O)cccc7o6)nc5)ncc43)cc(C3CCC(F)(F)CC3)nc2n(C)c1=O` (centres unmarked) [Example B158, 5-(5-(2-(4,4-difluorocyclohexyl)-6,8-dimethyl-7-oxo-7,8-dihydro-1,8-naphthyridin-4-yl)-5,6,7,8-tetrahydropyrido[3,2-d]pyrimidin-2-yl)-N-(3-(4-(2,6-dioxopiperidin-3-yl)benzofuran-2-yl)prop-2-yn-1-yl)picolinamide], the maximal degradation (Dmax) is above 80% and the half-maximal degradation concentration (DC50) lay within 10 to 99 nM.

In the case of `CC(C)c1cc(-c2cccc3cc(-c4ccc(C(=O)NCC#Cc5cc6c(c(NC7CCC(=O)NC7=O)c5)OCC6)nc4)ncc23)cc2c1n(C)c(=O)n2C` (centres unmarked) [Example A32, N-(3-(7-((2,6-Dioxopiperidin-3-yl)amino)-2,3-dihydrobenzofuran-5-yl)prop-2-yn-1-yl)-5-(8-(7-isopropyl-1,3-dimethyl-2-oxo-2,3-dihydro-1H-benzo[d]imidazol-5-yl)isoquinolin-3-yl)picolinamide], the Dmax was above 80% and the DC50 was 1 to 9.9 nM.

Consider `CCn1c(=O)n(C)c2c(C)cc(N3CCOc4nc(-c5ccc(C(=O)NCC#Cc6ccc7occ(C8CCC(=O)NC8=O)c7c6)nc5)ncc43)cc21` (centres unmarked) [Example A77, N-(3-(3-(2,6-dioxopiperidin-3-yl)benzofuran-5-yl)prop-2-yn-1-yl)-5-(5-(3-ethyl-1,7-dimethyl-2-oxo-2,3-dihydro-1H-benzo[d]imidazol-5-yl)-6,7-dihydro-5H-pyrimido[4,5-b][1,4]oxazin-2-yl)picolinamide], for which the maximal degradation (Dmax) is 60 to 79% and the DC50 lay in the range of 1 to 9.9 nM.

Consider `COc1cc(C#CCNC(=O)c2ccc(-c3cc4cccc(-c5cc(C(C)C)c6c(c5)n(C)c(=O)n6C)c4cn3)cn2)cc2c1cnn2C1CCC(=O)NC1=O` (centres unmarked) [Example A26, N-(3-(1-(2,6-Dioxopiperidin-3-yl)-4-methoxy-1H-indazol-6-yl)prop-2-yn-1-yl)-5-(8-(7-isopropyl-1,3-dimethyl-2-oxo-2,3-dihydro-1H-benzo[d]imidazol-5-yl)isoquinolin-3-yl)picolinamide], for which the Dmax lay in the range of 60 to 79% and the 50% degradation concentration (DC50) was in the range of 10 to 99 nM.

Molecule `CC(C)c1cc(N(C)c2cnc(-c3ccc(C(=O)NCC#Cc4ccc5occ(C6CCC(=O)NC6=O)c5c4)nc3)nc2)cc2c1n(C)c(=O)n2C` (centres unmarked) [Example A106, N-(3-(3-(2,6-dioxo-piperidin-3-yl)benzofuran-5-yl)prop-2-yn-1-yl)-5-(5-((7-isopropyl-1,3-dimethyl-2-oxo-2,3-dihydro-1H-benzo [d]imidazol-5-yl)(methyl)amino)pyrimidin-2-yl)picolinamide] displayed a Dmax above 80% and a half-maximal degradation concentration (DC50) of 1 to 9.9 nM.

`CCc1cc(-c2cccc3cc(-c4ccc(C(=O)NCC#Cc5ccc6c(c5)ncn6C5CCC(=O)NC5=O)nc4)ncc23)c2cc(C)c(=O)n(C)c2c1` (centres unmarked) [Example B12, N-(3-(1-(2,6-Dioxopiperidin-3-yl)-1H-benzo[d]imidazol-5-yl)prop-2-yn-1-yl)-5-(8-(7-ethyl-1,3-dimethyl-2-oxo-1,2-dihydroquinolin-5-yl)isoquinolin-3-yl)picolinamide] returned a Dmax below 20% and a DC50 above 1000 nM.

Broadly, the Dmax is the largest share of the target that was removed. A low value points to a partial loss of target. A word on the DC50: it is the midpoint of the concentration-degradation curve. A high value points to degradation only at high concentration.

Source of the values: patent US20250114345A1, “COMPOUNDS AND COMPOSITIONS AS CBP/P300 DEGRADERS AND USES THEREOF” (Oncopia Therapeutics, Inc. d/b/a/ SK Life Science Labs, priority 2023, published 2025).
